Measured values reported in US20250099532A1, “METHODS OF TREATMENT USING OXYTOCIN” (Belnap Pharmaceuticals, LLC, priority 2022, published 2025).

How the values were obtained:
patients = experiment: Clinical observations in treated patients; type: in vivo, human
Description: It is imperative that patients get as quickly to the positive zone as possible. […] Anxiety is a major contributor to chronic inflammation, which decreases BDNF and the continued loss of synaptic connections.

depression = conditions: after a single administration; cited from earlier work

| Compound | duration of positive effects of a series of infusions (patients; IV ketamine alone, series of infusions (e.g., six)) | relief of anxiety compared with depression (patients; patients, ketamine treatments alone) | begin of antidepressant effects post-infusion (depression) | loss of superiority to placebo post-infusion (depression) | peak of antidepressant effects (depression) | time the patient continued to stay sober (patients; Patient 3 (alcoholic), patient attributes it to the addition of oxytocin) | response of the patient's anxiety with oxytocin compared with ketamine treatment alone (patients; Patient 10 (PTSD, Depression, and Anxiety)) | recovery from anxiety compared with ketamine infusions alone (patients; patients, addition of oxytocin treatment) | ketamine experience when oxytocin is administered prior to the ketamine treatment (patients; patients, oxytocin before ketamine) | recovery from depression and anxiety compared with ketamine alone (patients; patients, oxytocin prior to ketamine treatment) |
| --- | --- | --- | --- | --- | --- | --- | --- | --- | --- | --- |
| CNC1(c2ccccc2Cl)CCCCC1=O (racemic) [ketamine, Ketamine (racemic)] | one month to several (e.g., 4-6) months | a lot slower | 40 min | 10 to 12 days | approximately 24 h |  |  |  |  |  |
| CC[C@H](C)[C@@H]1NC(=O)[C@H](Cc2ccc(O)cc2)NC(=O)[C@@H](N)CSSC[C@@H](C(=O)N2CCC[C@H]2C(=O)N[C@@H](CC(C)C)C(=O)NCC(N)=O)NC(=O)[C@H](CC(N)=O)NC(=O)[C@H](CCC(N)=O)NC1=O [oxytocin] |  |  |  |  |  | 18 months | much quicker | much quicker recovery | much more calm and euphoric ketamine experience | recovering much more quickly |
